± gives the standard deviation.
Test: chemical recovery from spiked human plasma; higher = better extraction
Conditions: pooled human plasma
[1] = extraction method: PES+SPE (3 d PDMS equilibration then HLB SPE)
[2] = extraction method: SPE only (HLB 96-well)
[3] = extraction method: solvent precipitation (ACN + hexane)
[4] = extraction method: SPE only (HLB 96-well), PES comparison experiment

SMILES | chemical recovery [1] | chemical recovery [2] | chemical recovery [3] | chemical recovery [4]
CC(C)N1C(=O)c2ccccc2N(C)S1(=O)=O [Bentazone-methyl] | 53.5 ± 11% | 28.9 ± 1.5% | 46.3 ± 5.3% | –
c1ccc2[nH]cnc2c1 [Benzimidazole] | 16.9 ± 4.1% | 4.01 ± 3.3% | 72 ± 2.6% | –
c1ccc2c(c1)ccc1sc3ccccc3c12 [Benzo[b]naphtho(1,2-d)thiophene] | – | 0.745 ± 0.2% | 20.4 ± 2.6% | –
c1ccc2cc3c(cc2c1)sc1ccccc13 [Benzo[b]naphtho(2,3-d)thiophene] | 61.7 ± 20% | 0.871 ± 0.26% | 63.3 ± 6.8% | –
O=C(OCc1ccccc1)c1ccccc1O [Benzyl salicylate] | – | 1.14 ± 0.085% | 26.5 ± 2.6% | –
c1ccc(COc2ccc3ccccc3c2)cc1 [Benzyl-2-naphthylether] | – | 0.473 ± 0.12% | 24.2 ± 0.93% | –
CCCCCCCCCC[N+](C)(C)Cc1ccccc1 [Benzyldimethyldecylammonium] | – | – | 66.1 ± 3.3% | –
CCCCCCCCCCCCCCCC[N+](C)(C)Cc1ccccc1 [Benzyldimethylhexadecylammonium] | – | – | 63.9 ± 7.4% | –
C[N+](C)(C)Cc1ccccc1 [Benzyltrimethylammonium] | – | 3.88 ± 2.8% | 75.8 ± 2.6% | –
Cc1c(COC(=O)C2C(/C=C(\Cl)C(F)(F)F)C2(C)C)cccc1-c1ccccc1 (stereo unspecified) [Bifenthrin] | – | 0.536 ± 0.24% | 18.9 ± 3.9% | –
CCCCC(CC)COP(=O)(O)OCC(CC)CCCC (stereo unspecified) [Bis(2-ethylhexyl)phosphate] | 16.4 ± 4.5% | 20.3 ± 2.5% | 52.8 ± 4.3% | 3.88 ± 1.6%
CCCCCC(CCC)COC(=O)c1ccccc1C(=O)OCC(CCC)CCCCC (stereo unspecified) [Bis(2-propylheptyl)-phthalate] | – | – | 70.9 ± 7.4% | –
CC1CC(CC2CCC(N)C(C)C2)CCC1N (stereo unspecified) [Bis(4-amino-3-methylcyclohexyl)methane] | – | – | 41.1 ± 7.7% | –
Oc1ccc(C(c2ccc(O)cc2)(C(F)(F)F)C(F)(F)F)cc1 [Bisphenol-AF] | 86.8 ± 4.4% | 51.2 ± 7.6% | 41.6 ± 2.4% | –
CC(C)(c1ccc(O)cc1)c1ccc(O)cc1 [Bisphenol-A] | 69.8 ± 4.4% | 45.4 ± 3.8% | – | –
Oc1ccc(C(c2ccccc2)(c2ccccc2)c2ccc(O)cc2)cc1 [Bisphenol-BP] | – | 40.9 ± 7.5% | 35.1 ± 3.6% | –
CCC(C)(c1ccc(O)cc1)c1ccc(O)cc1 [Bisphenol-B] | 63.4 ± 2% | 45.4 ± 1.4% | 49.7 ± 3.2% | –
Cc1cc(C(C)(C)c2ccc(O)c(C)c2)ccc1O [Bisphenol-C] | 52.7 ± 2.9% | 34.5 ± 4.8% | 39.4 ± 2.5% | –
CC(c1ccc(O)cc1)c1ccc(O)cc1 [Bisphenol-E] | 62.3 ± 2.5% | 51 ± 4% | 63.7 ± 3.1% | –
Oc1ccc(C2(c3ccc(O)cc3)c3ccccc3-c3ccccc32)cc1 [Bisphenol-FL] | – | 34.3 ± 5.9% | 26.8 ± 4.5% | –
Oc1ccc(Cc2ccc(O)cc2)cc1 [Bisphenol-F] | 70.2 ± 3.4% | 56 ± 2.6% | 72.6 ± 3.6% | –
CC(C)c1cc(C(C)(C)c2ccc(O)c(C(C)C)c2)ccc1O [Bisphenol-G] | – | 8.379 ± 0.058% | 39.5 ± 3.7% | –
CC(C)(c1ccc(O)c(-c2ccccc2)c1)c1ccc(O)c(-c2ccccc2)c1 [Bisphenol-PH] | 64.8 ± 12% | 26.7 ± 7% | 38 ± 5% | –
CCC(C)n1c(=O)[nH]c(C)c(Br)c1=O (stereo unspecified) [Bromacil] | 64.5 ± 4.7% | 49.3 ± 3% | 72.7 ± 2.8% | –

SMILES | chemical recovery [1] | chemical recovery [2] | chemical recovery [3] | chemical recovery [4]
CC(NC(C)(C)C)C(=O)c1cccc(Cl)c1 (stereo unspecified) [Bupropion] | 0.191 ± 0.047% | 37.7 ± 3.8% | 23.5 ± 3.1% | 38.7 ± 8.2%
CNC(=O)ON=C(C)C(C)SC (stereo unspecified) [Butocarboxim] | – | – | – | 46.4 ± 8.7%
Oc1ccc2c(c1)[C@@]13CCCC[C@@]1(O)[C@@H](C2)N(CC1CCC1)CC3 [Butorphanol] | – | 34.7 ± 9.8% | 65.5 ± 6.6% | –
CCCCOC(=O)c1ccc(O)cc1 [Butylparaben] | 51.3 ± 3.1% | 37.5 ± 1.3% | 64.9 ± 1.9% | –
CNC(=O)Oc1cccc2c1OC(C)(C)C2 [Carbofuran] | 41.4 ± 4.8% | 43.6 ± 1.7% | 47.2 ± 7% | –
c1ccc2c(c1)[nH]c1ncccc12 [Carboline] | 28 ± 5.2% | 40.3 ± 2.9% | 72.2 ± 3.8% | –
Nc1nc2c(ncn2COCC(=O)O)c(=O)[nH]1 [Carboxy-aciclovir] | – | 1.5 ± 1.3% | – | –
CCCC(C)(COC(N)=O)COC(=O)NC(C)C (stereo unspecified) [Carisoprodol] | – | – | 78.1 ± 5.9% | –
C[C@H](CCC(=O)O)[C@H]1CC[C@H]2[C@@H]3[C@H](O)C[C@@H]4C[C@H](O)CC[C@]4(C)[C@H]3CC[C@]12C [Chenodeoxycholic-acid] | – | 37.4 ± 7.9% | 74.9 ± 4.7% | –
CNC(=O)c1cc(Cl)cc(C)c1NC(=O)c1cc(Br)nn1-c1ncccc1Cl [Chlorantraniliprole] | 66.7 ± 5.2% | 49.5 ± 2.3% | 75.5 ± 1.2% | –
Cc1cc(Cl)ccc1/N=C/N(C)C [Chlordimeform] | 28.8 ± 4.5% | 24.7 ± 4.2% | 30.1 ± 3.3% | –
O=C(O)C1C(C(=O)O)C2(Cl)C(Cl)=C(Cl)C1(Cl)C2(Cl)Cl (stereo unspecified) [Chlorendic-acid] | 27 ± 6.5% | 23.9 ± 3.7% | 28.2 ± 7.5% | –
C[N+](C)(C)CCCl [Chlormequat] | 0.51 ± 0.024% | 0.778 ± 0.52% | 85 ± 12% | 10.2 ± 8.2%
N=C(NCCCCCCNC(=N)NC(=N)Nc1ccc(Cl)cc1)NC(=N)Nc1ccc(Cl)cc1 [Chlorohexidine] | – | – | 54.5 ± 1.9% | –
COc1nc(C)nc(NC(=O)NS(=O)(=O)c2ccccc2Cl)n1 [Chlorosulfuron] | – | – | 67.9 ± 3.4% | –
N#Cc1c(O)c(Cl)c(Cl)c(C#N)c1Cl [Chlorothalonil-4-hydroxy] | 37.1 ± 5.2% | 32.4 ± 3% | – | 33.8 ± 7.8%
N#Cc1cc(Cl)c(O)c(Cl)c1 [Chloroxynil] | 59 ± 2.5% | 46.1 ± 5.2% | 74.3 ± 3.8% | –
CN(C)CCC(c1ccc(Cl)cc1)c1ccccn1 (stereo unspecified) [Chlorpheniramine] | 0.333 ± 0.13% | 33.5 ± 3.4% | 54 ± 5.6% | –
CCCNC(=O)NS(=O)(=O)c1ccc(Cl)cc1 [Chlorpropamide] | 55.3 ± 5% | 47.5 ± 3.5% | 76.8 ± 4.6% | –
CC(C)OC(=O)Nc1cccc(Cl)c1 [Chlorpropham] | 37.9 ± 13% | 41.5 ± 2.7% | 43.8 ± 4.5% | –
CCOP(=S)(OCC)Oc1nc(Cl)c(Cl)cc1Cl [Chlorpyrifos] | – | – | – | 33.3 ± 7.2%
C[C@H](CCC(=O)O)[C@H]1CC[C@H]2[C@@H]3[C@H](O)C[C@@H]4C[C@H](O)CC[C@]4(C)[C@H]3C[C@H](O)[C@]12C [Cholic-acid] | – | 48.4 ± 3.9% | – | –
c1ccc2c(c1)ccc1c3ccccc3ccc21 [Chrysene] | – | 10.9 ± 2.5% | – | –
CN/C(=N\CCSCc1nc[nH]c1C)NC#N [Cimetidine] | – | – | 54.8 ± 1.7% | –

SMILES | chemical recovery [1] | chemical recovery [2] | chemical recovery [3] | chemical recovery [4]
CCCC1CC(C(=O)NC(C(C)Cl)C2OC(SC)C(O)C(O)C2O)N(C)C1 (stereo unspecified) [Clindamycin] | 36.7 ± 3.7% | 37.9 ± 2.5% | 65.5 ± 3.8% | –
Clc1ccccc1C(c1ccccc1)(c1ccccc1)n1ccnc1 [Clotrimazole] | – | – | – | 56.3 ± 11%
COc1cc2c(c(OC)c1OC)-c1ccc(OC)c(=O)cc1[C@@H](NC(C)=O)CC2 [Colchicine] | 48.5 ± 3.6% | 45 ± 3.9% | 70 ± 2.5% | –
Cc1ccc(-c2c(Cl)nc(C#N)n2S(=O)(=O)N(C)C)cc1 [Cyazofamid] | – | 41 ± 2% | – | –
O=C1CCCCCCCCCCC1 [Cyclododecanone] | – | 4.5 ± 3.9% | – | –
NC1CCCCC1 [Cyclohexylamine] | 2.9 ± 1.6% | 2.07 ± 3.6% | 35.9 ± 9.5% | –
O=C(c1ccccc1)C1CCCCC1 [Cyclohexylphenylketone] | – | 9.88 ± 8.6% | – | –
OC[C@@H](O)[C@@H](O)[C@H](O)[C@@H](O)CO [D-Glucitol] | – | 3.85 ± 1.9% | – | –
CCN(CC)C(=O)c1cccc(C(=O)O)c1 [DEET-carboxylic-acid] | 42.3 ± 4.4% | 43.9 ± 4.5% | 68.1 ± 5.1% | –
CCN(CC)C(=O)c1cccc(C)c1 [DEET] | – | 30.1 ± 3% | 52.6 ± 4.4% | –
CC(C)CCCCCCOC(=O)C1CCCCC1C(=O)OCCCCCCC(C)C (stereo unspecified) [DINCH] | – | 6.04 ± 3.4% | – | 4.77 ± 1.6%
O=C(O)c1cc(SSc2ccc([N+](=O)[O-])c(C(=O)O)c2)ccc1[N+](=O)[O-] [DTNB] | 0.204 ± 0.051% | – | 0.0596 ± 0.028% | –
C1CCC2CCCCC2C1 (stereo unspecified) [Decahydronaphthalene] | – | – | – | 3.14 ± 1.3%
CCCCCCCCCCOS(=O)(=O)O [Decylsulfate] | – | 18.8 ± 4.3% | 50.4 ± 1.6% | 30.8 ± 9%
CC(C)c1ccc2c(c1)CC[C@H]1[C@](C)(C(=O)O)CCC[C@]21C [Dehydroabietic-acid] | – | 29.7 ± 1.9% | – | –
CC[S+]([O-])CCSP(=O)(OC)OC (stereo unspecified) [Demeton-S-methyl-sulfoxide] | 35.2 ± 3.8% | 30.2 ± 2.2% | 42.7 ± 12% | –
C[C@H](CCC(=O)O)[C@H]1CC[C@H]2[C@@H]3CC[C@@H]4C[C@H](O)CC[C@]4(C)[C@H]3C[C@H](O)[C@]12C [Deoxycholic-acid] | – | 38.5 ± 8.1% | 75.8 ± 6.6% | –
CNCCCN1c2ccccc2CCc2ccccc21 [Desipramine] | 1.49 ± 0.66% | 35.8 ± 2.3% | 62.7 ± 6.1% | –
CCNc1nc(N)nc(Cl)n1 [Desisopropylatrazine] | 50.7 ± 4.7% | 38.9 ± 2.4% | – | –
COc1ccc2c(c1)[C@]13CCCC[C@@H]1[C@H](C2)N(C)CC3 [Dextromethorphan] | 0.431 ± 0.16% | 39.3 ± 3.3% | 70.1 ± 5.1% | –
CCCCOP(=O)(O)OCCCC [Di-n-butyl-phosphate] | 40.8 ± 6.1% | 40.5 ± 3.9% | – | –
CCCCCOC(=O)c1ccccc1C(=O)OCCCCC [Di-n-pentylphthalate] | – | 29.6 ± 6.2% | – | –
CC(=O)NCCNC(C)=O [Diacetylethylenediamine] | 0.534 ± 0.055% | 0.155 ± 0.14% | – | –
